Patent US7138361B2, “Herbicidal heterocycles” (E. I. du Pont de Nemours and Company, priority 2000, dated 2006)

Tests used:
Assay type in all cases: in vivo
[1] = system: Surinam grass (Brachiaria decumbens); assay: Test B postemergence; conditions: 13 to 15 days
Summary of the method: (§1)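 Seeds were planted and sprayed preemergence with test chemical in a non-phytotoxic solvent mixture containing surfactant; postemergence plants (2 to 18 cm, 1- to 4-leaf stage) received the same formulation. Greenhouse hold 13 to 15 days, then visual rating versus untreated controls on a 0–100 scale (0 no effect, 100 complete control).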

[2] = system: barnyardgrass (Echinochloa crus-galli); assay: Test B postemergence; conditions: 13 to 15 days
Summary of the method: as §1

[3] = system: blackgrass (Alopecurus myosuroides); assay: Test B postemergence; conditions: 13 to 15 days
Summary of the method: as §1

[4] = system: cocklebur (Xanthium strumarium); assay: Test B postemergence; conditions: 13 to 15 days
Summary of the method: as §1

corn (Zea mays) [5] = assay: Test B postemergence; conditions: 13 to 15 days
Summary of the method: as §1

[6] = system: crabgrass (Digitaria sanguinalis); assay: Test B postemergence; conditions: 13 to 15 days
Summary of the method: as §1

[7] = system: giant foxtail (Setaria faberii); assay: Test B postemergence; conditions: 13 to 15 days
Summary of the method: as §1

[8] = system: lambsquarters (Chenopodium album); assay: Test B postemergence; conditions: 13 to 15 days
Summary of the method: as §1

[9] = system: morning glory (Ipomoea hederacea); assay: Test B postemergence; conditions: 13 to 15 days
Summary of the method: as §1

[10] = system: pigweed (Amaranthus retroflexus); assay: Test B postemergence; conditions: 13 to 15 days
Summary of the method: as §1

[11] = system: velvetleaf (Abutilon theophrasti); assay: Test B postemergence; conditions: 13 to 15 days
Summary of the method: as §1

[12] = system: wheat (Triticum aestivum); assay: Test B postemergence; conditions: 13 to 15 days
Summary of the method: as §1

wild oat (Avena fatua) = assay: Test B postemergence; conditions: 13 to 15 days
Summary of the method: as §1

[13] = system: Surinam grass (Brachiaria decumbens); assay: Test B preemergence
Summary of the method: as §1

[14] = system: barnyardgrass (Echinochloa crus-galli); assay: Test B preemergence
Summary of the method: as §1

[15] = system: cocklebur (Xanthium strumarium); assay: Test B preemergence
Summary of the method: as §1

corn (Zea mays) [16] = assay: Test B preemergence
Summary of the method: as §1

[17] = system: crabgrass (Digitaria sanguinalis); assay: Test B preemergence
Summary of the method: as §1

[18] = system: giant foxtail (Setaria faberii); assay: Test B preemergence
Summary of the method: as §1

[19] = system: lambsquarters (Chenopodium album); assay: Test B preemergence
Summary of the method: as §1

[20] = system: morning glory (Ipomoea hederacea); assay: Test B preemergence
Summary of the method: as §1

[21] = system: pigweed (Amaranthus retroflexus); assay: Test B preemergence
Summary of the method: as §1

rice (Oryza saliva) = assay: Test B preemergence
Summary of the method: as §1

[22] = system: velvetleaf (Abutilon theophrasti); assay: Test B preemergence
Summary of the method: as §1

Nightshade = assay: Test C preemergence; conditions: visual evaluation after 12 to 14 days
Sunflower = assay: Test C preemergence; conditions: scale 0 to 100, 0 no effect, 100 complete control
[23] = Rate 125 g/ha, scale 0 (no effect) to 100 (complete control)
[24] = Rate 500 g/ha, scale 0 to 100, 0 is no effect, 100 is complete control
[25] = Preemergence, Rate 500 g/ha, scale 0 to 100, 0 no effect, 100 complete control
[26] = preemergence, Rate 125 g/ha, scale 0 to 100, 0 no effect, 100 complete control
[27] = preemergence, Rate 125 g/ha, scale of 0 to 100 where 0 is no effect and 100 is complete control, 13 to 15 days

SMILES: CC(C)c1ccn(C2SCN(c3cccc(OC(F)F)c3)C2=O)n1 (stereo not drawn) [Compound 44]
- Plant response rating, Surinam grass [1, 23]: 0
- Plant response rating, Surinam grass [1, 24]: 0
- Plant response rating, Barnyardgrass [2, 23]: 40
- Plant response rating, Barnyardgrass [2, 24]: 100
- Plant response rating, Blackgrass [3, 23]: 0
- Plant response rating, Blackgrass [3, 24]: 0
- Plant response rating, Cocklebur [4, 23]: 20
- Plant response rating, Cocklebur [4, 24]: 70
- Plant response rating, Corn (corn (Zea mays) [5]; [23]): 0
- Plant response rating, Corn (corn (Zea mays) [5]; [24]): 20
- Plant response rating, Crabgrass [6, 23]: 0
- Plant response rating, Crabgrass [6, 24]: 40
- Plant response rating, Foxtail, Giant [7, 23]: 0
- Plant response rating, Foxtail, Giant [7, 24]: 60
- Plant response rating, Lambsquarters [8, 23]: 20
- Plant response rating, Lambsquarters [8, 24]: 60
- Plant response rating, Morningglory [9, 23]: 0
- Plant response rating, Morningglory [9, 24]: 0
- Plant response rating, Pigweed [10, 23]: 0
- Plant response rating, Pigweed [10, 24]: 0
- Plant response rating, Velvetleaf [11, 23]: 0
- Plant response rating, Velvetleaf [11, 24]: 0
- Plant response rating, Wheat [12, 23]: 0
- Plant response rating, Wheat [12, 24]: 0
- Plant response rating, Wild Oat (wild oat (Avena fatua); [23]): 0
- Plant response rating, Wild Oat (wild oat (Avena fatua); [24]): 0
- Plant response rating, Surinam grass [13, 25]: 100
- Plant response rating, Surinam grass [13, 26]: 0
- Plant response rating, Barnyardgrass [14, 25]: 100
- Plant response rating, Barnyardgrass [14, 26]: 80
- Plant response rating, Cocklebur [15, 26]: 0
- Plant response rating, Corn (corn (Zea mays) [16]; [25]): 20
- Plant response rating, Corn (corn (Zea mays) [16]; [26]): 0
- Plant response rating, Crabgrass [17, 25]: 100
- Plant response rating, Crabgrass [17, 26]: 0
- Plant response rating, Foxtail, Giant [18, 25]: 100
- Plant response rating, Foxtail, Giant [18, 26]: 10
- Plant response rating, Lambsquarters [19, 25]: 100
- Plant response rating, Lambsquarters [19, 26]: 100
- Plant response rating, Morningglory [20, 25]: 0
- Plant response rating, Pigweed [21, 25]: 100
- Plant response rating, Rice (rice (Oryza saliva); [25]): 100
- Plant response rating, Velvetleaf [22, 25]: 0
- Plant response rating (0 to 100), Nightshade (Nightshade; Rate 250 g/ha): 0
- Plant response rating, Sunflower (Sunflower; Rate 125 g/ha): 0

SMILES: CC1(c2ccn(C3SCN(c4cccc(C(F)(F)F)c4)C3=O)n2)CC1 (stereo not drawn) [Compound 64]
- Plant response rating, Surinam grass [1, 23]: 0
- Plant response rating, Surinam grass [1, 24]: 40
- Plant response rating, Barnyardgrass [2, 23]: 0
- Plant response rating, Barnyardgrass [2, 24]: 50
- Plant response rating, Blackgrass [3, 23]: 0
- Plant response rating, Blackgrass [3, 24]: 0
- Plant response rating, Cocklebur [4, 23]: 70
- Plant response rating, Cocklebur [4, 24]: 70
- Plant response rating, Corn (corn (Zea mays) [5]; [23]): 0
- Plant response rating, Corn (corn (Zea mays) [5]; [24]): 20
- Plant response rating, Crabgrass [6, 23]: 0
- Plant response rating, Crabgrass [6, 24]: 50
- Plant response rating, Foxtail, Giant [7, 23]: 0
- Plant response rating, Foxtail, Giant [7, 24]: 30
- Plant response rating, Lambsquarters [8, 23]: 70
- Plant response rating, Lambsquarters [8, 24]: 80
- Plant response rating, Morningglory [9, 23]: 0
- Plant response rating, Morningglory [9, 24]: 60
- Plant response rating, Pigweed [10, 23]: 40
- Plant response rating, Pigweed [10, 24]: 70
- Plant response rating, Velvetleaf [11, 23]: 0
- Plant response rating, Velvetleaf [11, 24]: 30
- Plant response rating, Wheat [12, 23]: 0
- Plant response rating, Wheat [12, 24]: 0
- Plant response rating, Wild Oat (wild oat (Avena fatua); [23]): 0
- Plant response rating, Wild Oat (wild oat (Avena fatua); [24]): 0
- Plant response rating, Surinam grass [13, 25]: 60
- Plant response rating, Surinam grass [13, 27]: 30
- Plant response rating, Barnyardgrass [14, 25]: 90
- Plant response rating, Barnyardgrass [14, 27]: 50
- Plant response rating, Cocklebur [15, 25]: 10
- Plant response rating, Cocklebur [15, 27]: 0
- Plant response rating, Corn (corn (Zea mays) [16]; [25]): 20
- Plant response rating, Corn (corn (Zea mays) [16]; [27]): 0
- Plant response rating, Crabgrass [17, 25]: 100
- Plant response rating, Crabgrass [17, 27]: 40
- Plant response rating, Foxtail, Giant [18, 25]: 90
- Plant response rating, Foxtail, Giant [18, 27]: 0
- Plant response rating, Lambsquarters [19, 25]: 100
- Plant response rating, Lambsquarters [19, 27]: 100
- Plant response rating, Morningglory [20, 25]: 10
- Plant response rating, Morningglory [20, 27]: 0
- Plant response rating, Pigweed [21, 25]: 100
- Plant response rating, Pigweed [21, 27]: 100
- Plant response rating, Rice (rice (Oryza saliva); [25]): 0
- Plant response rating, Rice (rice (Oryza saliva); [27]): 0
- Plant response rating, Velvetleaf [22, 25]: 0
- Plant response rating, Velvetleaf [22, 27]: 0
- Plant response rating (0 to 100), Nightshade (Nightshade; Rate 500 g/ha): 90
- Plant response rating, Sunflower (Sunflower; Rate 125 g/ha): 20
- Plant response rating, Sunflower (Sunflower; Rate 250 g/ha): 50
